# Test results reported in paper PMC8550792, “Evolution of kinase polypharmacology across HSP90 drug discovery” (Cell Chemical Biology, 2021).
# Key:
# Experiment in all cases: biochemical
# Type in all cases: biochemical
# [1] = target: T1, 382 unique human kinases (Homo sapiens, UniProt Q12851); details: GCK/MAP4K2, 10 uM; for remaining activity at 10 µM: read-out: % Enzyme Activity (relative to DMSO controls)
# T1 construct: purchased Reaction Biology (HotSpot contract assay)
# T1 sequence (Q12851 1-820): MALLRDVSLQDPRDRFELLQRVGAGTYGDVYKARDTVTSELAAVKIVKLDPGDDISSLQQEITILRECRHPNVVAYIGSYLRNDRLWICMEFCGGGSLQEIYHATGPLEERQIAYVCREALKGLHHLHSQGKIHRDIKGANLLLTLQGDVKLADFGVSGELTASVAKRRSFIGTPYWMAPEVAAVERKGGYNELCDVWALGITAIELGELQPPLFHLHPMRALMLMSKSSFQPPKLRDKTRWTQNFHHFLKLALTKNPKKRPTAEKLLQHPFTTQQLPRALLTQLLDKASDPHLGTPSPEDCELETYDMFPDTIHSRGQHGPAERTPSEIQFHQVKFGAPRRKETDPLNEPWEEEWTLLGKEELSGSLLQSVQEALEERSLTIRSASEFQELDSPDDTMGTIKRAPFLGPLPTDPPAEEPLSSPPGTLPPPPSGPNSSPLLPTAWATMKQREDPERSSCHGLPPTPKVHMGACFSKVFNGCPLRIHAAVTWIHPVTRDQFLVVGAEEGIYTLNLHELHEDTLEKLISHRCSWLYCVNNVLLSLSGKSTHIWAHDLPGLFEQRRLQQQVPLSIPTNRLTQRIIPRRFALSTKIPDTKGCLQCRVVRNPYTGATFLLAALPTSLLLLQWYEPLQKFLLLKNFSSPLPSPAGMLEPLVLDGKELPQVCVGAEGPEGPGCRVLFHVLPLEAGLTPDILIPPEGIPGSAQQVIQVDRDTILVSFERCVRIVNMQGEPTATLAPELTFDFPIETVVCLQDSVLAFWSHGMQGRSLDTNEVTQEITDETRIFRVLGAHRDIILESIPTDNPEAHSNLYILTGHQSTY
# [2] = target: T2, 382 unique human kinases (Homo sapiens, UniProt Q9BZL6); details: kinase PKD2/PRKD2, compound 10 uM; for remaining activity at 10 µM: read-out: % Enzyme Activity (relative to DMSO controls)
# T2 construct: purchased Reaction Biology (HotSpot contract assay)
# T2 sequence (Q9BZL6 1-878): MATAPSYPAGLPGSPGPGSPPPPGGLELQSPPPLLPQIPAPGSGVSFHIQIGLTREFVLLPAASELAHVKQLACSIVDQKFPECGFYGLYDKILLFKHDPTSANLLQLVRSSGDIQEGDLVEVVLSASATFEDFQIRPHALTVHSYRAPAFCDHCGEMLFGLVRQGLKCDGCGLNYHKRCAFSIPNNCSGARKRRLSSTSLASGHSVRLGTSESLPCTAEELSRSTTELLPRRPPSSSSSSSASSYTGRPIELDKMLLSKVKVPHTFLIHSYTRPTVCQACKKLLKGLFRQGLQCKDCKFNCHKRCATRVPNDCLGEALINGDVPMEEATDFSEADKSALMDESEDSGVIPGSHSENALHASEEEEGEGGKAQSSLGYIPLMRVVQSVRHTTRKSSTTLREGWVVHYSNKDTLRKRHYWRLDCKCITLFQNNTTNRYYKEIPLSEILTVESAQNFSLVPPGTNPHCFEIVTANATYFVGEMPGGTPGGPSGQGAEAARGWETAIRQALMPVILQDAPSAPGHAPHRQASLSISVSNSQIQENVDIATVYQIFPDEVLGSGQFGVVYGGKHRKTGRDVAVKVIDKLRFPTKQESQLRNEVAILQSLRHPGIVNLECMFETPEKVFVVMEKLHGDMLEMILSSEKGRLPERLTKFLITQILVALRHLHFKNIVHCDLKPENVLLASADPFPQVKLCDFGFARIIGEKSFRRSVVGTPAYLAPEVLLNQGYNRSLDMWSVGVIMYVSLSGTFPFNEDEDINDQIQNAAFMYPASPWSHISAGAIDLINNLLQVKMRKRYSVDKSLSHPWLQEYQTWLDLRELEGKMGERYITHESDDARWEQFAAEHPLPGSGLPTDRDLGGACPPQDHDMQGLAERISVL
# [3] = target: T3, 382 unique human kinases (Homo sapiens, UniProt P49674); details: CK1epsilon, 10 uM; for remaining activity at 10 µM: read-out: % Enzyme Activity (relative to DMSO controls)
# T3 construct: purchased Reaction Biology (HotSpot contract assay)
# T3 sequence (P49674 whole entry): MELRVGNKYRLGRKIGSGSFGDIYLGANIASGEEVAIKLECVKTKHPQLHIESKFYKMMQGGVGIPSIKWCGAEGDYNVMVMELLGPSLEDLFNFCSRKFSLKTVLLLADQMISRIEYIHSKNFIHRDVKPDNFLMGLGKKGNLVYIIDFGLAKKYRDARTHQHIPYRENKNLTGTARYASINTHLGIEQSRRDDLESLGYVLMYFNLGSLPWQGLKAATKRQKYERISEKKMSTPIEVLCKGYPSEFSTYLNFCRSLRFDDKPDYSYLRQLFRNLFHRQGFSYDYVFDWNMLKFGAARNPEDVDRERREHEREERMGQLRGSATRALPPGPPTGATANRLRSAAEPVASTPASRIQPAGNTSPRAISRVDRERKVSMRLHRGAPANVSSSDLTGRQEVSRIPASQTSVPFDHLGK
# [4] = target: T4, 382 unique human kinases (Homo sapiens, UniProt Q14289); details: PYK2, 10 uM; for remaining activity at 10 µM: read-out: % Enzyme Activity (relative to DMSO controls)
# T4 construct: purchased Reaction Biology (HotSpot contract assay)
# T4 sequence (Q14289 whole entry): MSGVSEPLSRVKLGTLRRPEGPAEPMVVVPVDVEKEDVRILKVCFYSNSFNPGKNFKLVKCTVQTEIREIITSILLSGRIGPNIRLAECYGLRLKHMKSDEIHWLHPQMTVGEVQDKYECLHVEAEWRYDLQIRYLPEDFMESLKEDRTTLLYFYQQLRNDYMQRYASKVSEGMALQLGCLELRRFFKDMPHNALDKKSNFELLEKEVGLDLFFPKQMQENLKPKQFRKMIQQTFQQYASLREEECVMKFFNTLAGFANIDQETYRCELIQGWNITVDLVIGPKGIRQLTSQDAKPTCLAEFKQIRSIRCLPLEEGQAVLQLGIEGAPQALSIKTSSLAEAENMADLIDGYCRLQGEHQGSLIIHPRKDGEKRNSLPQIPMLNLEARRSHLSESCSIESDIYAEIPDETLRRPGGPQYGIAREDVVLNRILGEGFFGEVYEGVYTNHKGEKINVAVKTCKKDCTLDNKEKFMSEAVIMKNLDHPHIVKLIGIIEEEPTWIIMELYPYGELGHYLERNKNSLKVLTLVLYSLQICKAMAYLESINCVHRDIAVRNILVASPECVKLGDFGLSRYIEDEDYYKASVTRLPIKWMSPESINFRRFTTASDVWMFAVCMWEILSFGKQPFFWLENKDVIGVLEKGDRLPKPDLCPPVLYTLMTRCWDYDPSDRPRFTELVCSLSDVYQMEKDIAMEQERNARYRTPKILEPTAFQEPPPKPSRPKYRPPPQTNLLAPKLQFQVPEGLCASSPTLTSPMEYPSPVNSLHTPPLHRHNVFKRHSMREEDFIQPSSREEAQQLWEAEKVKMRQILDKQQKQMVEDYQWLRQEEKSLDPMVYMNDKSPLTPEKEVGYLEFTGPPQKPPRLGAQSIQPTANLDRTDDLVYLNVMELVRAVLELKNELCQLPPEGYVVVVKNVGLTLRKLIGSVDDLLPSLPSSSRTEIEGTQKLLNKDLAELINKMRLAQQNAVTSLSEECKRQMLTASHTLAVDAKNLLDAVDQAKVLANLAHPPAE
# [5] = target: T5, 382 unique human kinases (Homo sapiens, UniProt Q9Y5S2); details: MRCKb/CDC42BPB, 10 uM; for remaining activity at 10 µM: read-out: % Enzyme Activity (relative to DMSO controls)
# T5 construct: purchased Reaction Biology (HotSpot contract assay)
# T5 sequence (Q9Y5S2 whole entry): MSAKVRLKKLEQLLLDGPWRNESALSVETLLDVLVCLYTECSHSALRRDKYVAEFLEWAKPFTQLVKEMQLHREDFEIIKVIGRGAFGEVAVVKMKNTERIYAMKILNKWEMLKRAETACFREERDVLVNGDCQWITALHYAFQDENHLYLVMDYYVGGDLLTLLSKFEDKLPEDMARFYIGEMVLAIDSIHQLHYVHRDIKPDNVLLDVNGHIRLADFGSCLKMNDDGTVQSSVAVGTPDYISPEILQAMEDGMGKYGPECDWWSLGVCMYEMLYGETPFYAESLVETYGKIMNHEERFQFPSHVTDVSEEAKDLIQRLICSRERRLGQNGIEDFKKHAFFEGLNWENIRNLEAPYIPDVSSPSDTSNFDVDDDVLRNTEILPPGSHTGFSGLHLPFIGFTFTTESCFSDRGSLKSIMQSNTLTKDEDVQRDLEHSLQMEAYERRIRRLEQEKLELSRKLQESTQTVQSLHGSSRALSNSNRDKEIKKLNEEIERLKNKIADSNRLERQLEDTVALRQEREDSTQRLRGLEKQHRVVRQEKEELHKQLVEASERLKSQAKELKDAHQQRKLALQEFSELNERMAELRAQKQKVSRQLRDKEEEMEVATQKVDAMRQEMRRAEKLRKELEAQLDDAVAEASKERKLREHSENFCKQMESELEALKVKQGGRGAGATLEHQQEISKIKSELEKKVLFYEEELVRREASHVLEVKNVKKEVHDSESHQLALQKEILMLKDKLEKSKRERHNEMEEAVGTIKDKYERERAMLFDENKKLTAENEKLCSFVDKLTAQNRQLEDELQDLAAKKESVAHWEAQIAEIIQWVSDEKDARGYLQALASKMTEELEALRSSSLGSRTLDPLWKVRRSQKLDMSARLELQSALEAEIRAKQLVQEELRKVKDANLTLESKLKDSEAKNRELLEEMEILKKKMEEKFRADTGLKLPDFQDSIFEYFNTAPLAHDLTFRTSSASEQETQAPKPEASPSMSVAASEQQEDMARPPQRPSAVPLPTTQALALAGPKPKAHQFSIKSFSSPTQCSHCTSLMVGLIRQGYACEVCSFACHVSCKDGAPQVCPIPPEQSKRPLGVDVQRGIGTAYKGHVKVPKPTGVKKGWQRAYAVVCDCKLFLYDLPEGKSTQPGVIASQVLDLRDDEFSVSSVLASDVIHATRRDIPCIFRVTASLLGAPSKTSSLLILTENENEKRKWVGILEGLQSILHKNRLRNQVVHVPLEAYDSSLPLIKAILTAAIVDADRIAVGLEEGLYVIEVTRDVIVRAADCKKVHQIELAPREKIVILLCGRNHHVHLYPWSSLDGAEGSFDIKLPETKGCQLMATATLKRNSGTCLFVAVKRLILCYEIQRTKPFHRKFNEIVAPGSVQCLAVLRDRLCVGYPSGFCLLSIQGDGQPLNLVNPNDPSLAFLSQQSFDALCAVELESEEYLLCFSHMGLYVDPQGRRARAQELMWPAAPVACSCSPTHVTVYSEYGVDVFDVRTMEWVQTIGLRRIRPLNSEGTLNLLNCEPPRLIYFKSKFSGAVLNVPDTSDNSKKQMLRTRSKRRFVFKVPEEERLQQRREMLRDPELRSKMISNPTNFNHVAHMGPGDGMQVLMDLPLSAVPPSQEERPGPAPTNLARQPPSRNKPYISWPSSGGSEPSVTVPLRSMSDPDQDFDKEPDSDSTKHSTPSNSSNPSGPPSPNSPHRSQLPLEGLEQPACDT
# [6] = target: T6, 382 unique human kinases (Homo sapiens, UniProt P00533, L858R); details: kinase EGFR (L858R), compound 10 uM; for remaining activity at 10 µM: read-out: % Enzyme Activity (relative to DMSO controls)
# T6 construct: purchased Reaction Biology (HotSpot contract assay)
# [7] = target: T7, 382 unique human kinases (Homo sapiens, UniProt P37023); details: ALK1/ACVRL1, 10 uM; for remaining activity at 10 µM: read-out: % Enzyme Activity (relative to DMSO controls)
# T7 construct: purchased Reaction Biology (HotSpot contract assay)
# T7 sequence (P37023 22-503): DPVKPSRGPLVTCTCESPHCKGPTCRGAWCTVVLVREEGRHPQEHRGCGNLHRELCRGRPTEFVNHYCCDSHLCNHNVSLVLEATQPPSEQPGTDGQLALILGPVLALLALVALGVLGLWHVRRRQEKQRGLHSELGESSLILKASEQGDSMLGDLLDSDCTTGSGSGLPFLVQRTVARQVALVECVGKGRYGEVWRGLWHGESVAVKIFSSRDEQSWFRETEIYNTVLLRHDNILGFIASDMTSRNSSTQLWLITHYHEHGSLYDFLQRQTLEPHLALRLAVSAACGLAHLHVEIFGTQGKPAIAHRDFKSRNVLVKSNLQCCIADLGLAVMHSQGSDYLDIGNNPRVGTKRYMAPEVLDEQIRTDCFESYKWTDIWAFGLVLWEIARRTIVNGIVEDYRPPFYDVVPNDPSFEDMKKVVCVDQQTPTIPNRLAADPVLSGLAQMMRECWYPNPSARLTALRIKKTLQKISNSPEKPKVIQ
# [8] = target: T8, 382 unique human kinases (Homo sapiens, UniProt Q5TCX8); details: MLK4, 10 uM; for remaining activity at 10 µM: read-out: % Enzyme Activity (relative to DMSO controls)
# T8 construct: purchased Reaction Biology (HotSpot contract assay)
# T8 sequence (Q5TCX8 whole entry): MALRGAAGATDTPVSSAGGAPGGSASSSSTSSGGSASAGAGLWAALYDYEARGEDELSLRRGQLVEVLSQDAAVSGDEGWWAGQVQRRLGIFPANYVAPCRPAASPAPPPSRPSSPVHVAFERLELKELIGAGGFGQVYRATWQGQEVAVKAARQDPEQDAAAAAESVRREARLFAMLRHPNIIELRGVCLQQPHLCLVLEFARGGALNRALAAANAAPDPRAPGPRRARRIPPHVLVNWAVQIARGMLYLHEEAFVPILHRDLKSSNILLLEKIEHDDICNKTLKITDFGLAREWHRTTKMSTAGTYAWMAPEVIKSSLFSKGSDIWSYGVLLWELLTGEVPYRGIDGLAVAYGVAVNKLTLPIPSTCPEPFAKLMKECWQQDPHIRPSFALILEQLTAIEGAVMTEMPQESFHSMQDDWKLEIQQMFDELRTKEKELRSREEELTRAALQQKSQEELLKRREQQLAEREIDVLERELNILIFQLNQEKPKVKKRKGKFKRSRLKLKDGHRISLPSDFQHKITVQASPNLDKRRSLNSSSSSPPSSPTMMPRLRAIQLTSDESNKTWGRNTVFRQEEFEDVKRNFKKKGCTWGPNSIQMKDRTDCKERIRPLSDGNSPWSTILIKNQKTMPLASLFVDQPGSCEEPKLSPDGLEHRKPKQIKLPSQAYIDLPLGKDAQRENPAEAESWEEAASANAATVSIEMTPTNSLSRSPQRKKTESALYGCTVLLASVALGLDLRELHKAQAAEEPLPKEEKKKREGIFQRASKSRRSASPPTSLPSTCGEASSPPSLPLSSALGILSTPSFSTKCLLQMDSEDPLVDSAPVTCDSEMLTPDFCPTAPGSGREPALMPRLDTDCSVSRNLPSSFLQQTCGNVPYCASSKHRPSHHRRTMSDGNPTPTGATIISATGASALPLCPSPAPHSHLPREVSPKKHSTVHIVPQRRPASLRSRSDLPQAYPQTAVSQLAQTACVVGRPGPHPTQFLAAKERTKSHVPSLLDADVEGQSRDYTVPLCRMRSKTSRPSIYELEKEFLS
SMILES,remaining activity at 10 µM [1] [%],remaining activity at 10 µM [2] [%],remaining activity at 10 µM [3] [%],remaining activity at 10 µM [4] [%],remaining activity at 10 µM [5] [%],remaining activity at 10 µM [6] [%],remaining activity at 10 µM [7] [%],remaining activity at 10 µM [8] [%],% Enzyme Activity (relative to DMSO controls) [1] [%],% Enzyme Activity (relative to DMSO controls) [2] [%],% Enzyme Activity (relative to DMSO controls) [3] [%],% Enzyme Activity (relative to DMSO controls) [4] [%],% Enzyme Activity (relative to DMSO controls) [5] [%],% Enzyme Activity (relative to DMSO controls) [6] [%],% Enzyme Activity (relative to DMSO controls) [7] [%],% Enzyme Activity (relative to DMSO controls) [8] [%]
CC(C)c1cc(-c2n[nH]c(=O)n2-c2ccc3c(ccn3C)c2)c(O)cc1O [Ganetespib (STA9090)],76,87,73.4,78.5,78.9,88.8,,,,,,,,,,
CC(C)c1cc(-c2n[nH]c(=O)n2-c2ccc3c(ccn3C)c2)c(O)cc1O [Ganetespib],,,,,,,95.6,141,,,,,,,,
CCNC(=O)c1noc(-c2cc(C(C)C)c(O)cc2O)c1-c1ccc(CN2CCOCC2)cc1 [Luminespib (AUY-922)],97.2,99.3,105,98.8,111,97,,,94.14,97.40,103.86,97.56,103.51,96.48,,
CCNC(=O)c1noc(-c2cc(C(C)C)c(O)cc2O)c1-c1ccc(CN2CCOCC2)cc1 [Luminespib],,,,,,,105,101,,,,,,,102.87,99.12
